The test system of this test is Nicotiana benthamiana. In words: Test Example 4: growth promotion under low-temperature stress by hydroponics of Nicotiana benthamiana, 10 ppm. The settings on record: 10 ppm in medium, low-temperature stress 7 days at 1.5±1.0° C., green leaf area 3 days later, equation (1). Format: in vivo. Put shortly:
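Nicotiana benthamiana grown 7 days at 22 °C in half-strength Murashige-Skoog medium, pH 5.8, with compound at 10 ppm (DMSO 1/1,000 v/v), chilled 7 days at 1.5±1.0 °C, recovered 3 days at 22 °C. Green leaf area expressed relative to stressed and unstressed DMSO controls; ≥5 scored as mitigating.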
The compound `COC(=O)c1cc2ccccc2o1` [Compound 1] returned a relative leaf area at 10 ppm not below 5%. In turn, `COC(=O)c1oc2ccc(C(F)(F)F)cc2c1C` [Compound 33] registered a relative leaf area at 10 ppm not below 5%. With `Cc1c(C(=O)O)oc2ccc(C(F)(F)F)cc12` [Compound 34], the relative leaf area at 10 ppm was not below 5%. For `COC(=O)c1oc2ccccc2c1NC(=O)C(F)(F)F` [Compound 39] the value was not below 5%; for `COC(=O)c1oc2ccccc2c1NC(C)=O` [Compound 40], not below 5%; for `COC(=O)c1oc2ccccc2c1N(C(C)=O)C(C)=O` [Compound 41], not below 5%. As to `O=C(O)c1cc2c(C(F)(F)F)cccc2o1` [Compound 43], the relative leaf area at 10 ppm was not below 5%. On to `CCOC(=O)c1cc2c(C(F)(F)F)cccc2o1` [Compound 44], for which the relative leaf area at 10 ppm was not below 5%. In the case of `NC(=O)c1cc2cc(C(F)(F)F)ccc2o1` [Compound 51], the relative leaf area at 10 ppm was not below 5%.

`O=C(Nc1ccccc1)c1cc2cc(C(F)(F)F)ccc2o1` [Compound 53]: the relative leaf area at 10 ppm is not below 5%.

For the compound `O=C(NCc1ccccc1)c1cc2cc(C(F)(F)F)ccc2o1` [Compound 54], the relative leaf area at 10 ppm was not below 5%.

The compound `O=C(Oc1ccccc1)c1cc2cc(C(F)(F)F)ccc2o1` [Compound 55] registered a relative leaf area at 10 ppm not below 5%. On to `O=C(OCc1ccccc1)c1cc2cc(C(F)(F)F)ccc2o1` [Compound 56], for which the relative leaf area at 10 ppm was not below 5%. With `COC(=O)c1oc2ccc(C(F)(F)F)cc2c1N(C)C` [Compound 62], the relative leaf area at 10 ppm is not below 5%. As for `COC(=O)c1oc2ccc(C(F)(F)F)cc2c1NC(C)=O` [Compound 63], the relative leaf area at 10 ppm was not below 5%. For the compound `COC(=O)c1oc2ccc(C(F)(F)F)cc2c1N(C(C)=O)C(C)=O` [Compound 64], the relative leaf area at 10 ppm is not below 5%. Compound `COC(=O)c1oc2ccc(C(F)(F)F)cc2c1NC(=O)C(F)(F)F` [Compound 65] showed a relative leaf area at 10 ppm not below 5%.

In turn, `COC(=O)c1oc2ccc(C(F)(F)F)cc2c1NS(C)(=O)=O` [Compound 67] had a relative leaf area at 10 ppm not below 5%. In the case of `O=C(O)c1oc2ccc(C(F)(F)F)cc2c1C(F)(F)F` [Compound 69], the relative leaf area at 10 ppm was not below 5%.

`CCOC(=O)c1oc2ccc(C(F)(F)F)cc2c1C(F)(F)F` [Compound 71] returned a relative leaf area at 10 ppm not below 5%. Consider `O=C(OCc1ccccc1)c1oc2ccc(C(F)(F)F)cc2c1C(F)(F)F` [Compound 73], for which the relative leaf area at 10 ppm was not below 5%. For `NC(=O)c1oc2ccc(C(F)(F)F)cc2c1C(F)(F)F` [Compound 74] the value was not below 5%; for `CNC(=O)c1oc2ccc(C(F)(F)F)cc2c1C(F)(F)F` [Compound 75], not below 5%; for `O=C(NCc1ccccc1)c1oc2ccc(C(F)(F)F)cc2c1C(F)(F)F` [Compound 77], not below 5%.

In the case of `O=C(O)c1cc2cc(Br)ccc2o1` [Compound 79], the relative leaf area at 10 ppm is not below 5%. Under `O=C(O)c1oc2ccccc2c1C(F)(F)F` [Compound 82] stands not below 5%; under `COC(=O)c1oc2ccccc2c1C(F)(F)F` [Compound 83], not below 5%; under `O=C(O)c1nc2c(F)cc(F)cc2s1` [Compound 86], not below 5%.

The values above are taken from patent US20150289512A1, “METHOD FOR PROMOTING PLANT GROWTH” (SUMITOMO CHEMICAL COMPANY, LIMITED, priority 2012, published 2015).
